Data: article PMC6234764, “First Insights Into Within Host Translocation of the Bacillus cereus Toxin Cereulide Using a Porcine Model” (Frontiers in Microbiology, 2018)

Legend:
[1] = test system: piglets; test: Blood analysis: hematology and clinical chemistry; assay type: in vivo, pig
Description: (§1) A total of four experiments, each including four treated animals and one control pig, was performed to investigate the action of cereulide on piglets after oral intake of cereulide. Pigs were either challenged orally with a single dose (acute trials) or with daily over a period of 7 days (chronic trial) (see Table 1). One hour before cereulide toxin administration blood samples were taken by puncturing the anterior Vena cava and piglets were weighed for calculation of the cereulide concentration (t = 0 h). In the intoxication experiment with 150 μg kg^-1 blood samples were taken 68 h before the experiment to reduce the distress for the animals at the start day of the experiments. Blood-chemical, immunological, and histological analyses of selected organs as well as quantification of cereulide in organs, tissues, urine and feces were carried out as detailed below.
(§2) After oral administration of cereulide, piglets were monitored for unusual behavior and examined physically with special respect on rectal body temperature as well as pulse and respiration rate, every 2–3 h. Blood samples were taken from the Vena cava cranialis. Urine and feces were collected during the whole experiment and stored at -80°C. After the experiment pigs were anaesthetized by intramuscular injection of a bolus of ketamine (10 mg kg^-1) and azaperone (1.3 mg kg^-1). When sedation was deep enough cerebrospinal fluid (liquor) was taken by lumbar puncture. Finally, pigs were euthanized by intracardial injection of T61®. Animals were then necropsied and parts of the following organs, tissues or body fluids were taken for SIDA-MS analysis: liver, lung, heart, kidney, brain, spleen, small and large intestine, lymph nodes, gastric as well as intestinal contents, skeletal muscle, and abdominal and subcutaneous fat. Samples of liver, lung, heart, kidney, brain, spleen, small, and large intestine were collected for histological analysis.
One milliliter EDTA-stabilized blood and 3 mL heparin-stabilized blood (worked up to serum) were screened for erythrocyte number, hemoglobin, hematocrit, mean cellular volume (MCV), mean cellular hemoglobin (MCH), mean cellular hemoglobin concentration (MCHC), leukocyte number, mean peroxidase index (MPXI), numbers of monocytes, lymphocytes, eosinophils, basophils, lymphoblasts, juvenile and segmented neutrophils, as well as glucose, urea, creatinine, total protein, aspartate amino transferase (AST), alanine amino transferase (ALT), […] (GLDH), gamma glutamyl transferase (GGT), bile acid, lipase, creatine kinase, sodium, potassium, chloride, calcium, and phosphorus at the central diagnostic unit of the University of Veterinary Medicine Vienna.

[2] = test system: Large White piglets; test: Clinical signs after oral administration of cereulide; assay type: in vivo, pig
Description: In each experiment five Large White piglets, weighing 10–15 kg, were used. All piglets were derived from one single farm in Austria. The animals were placed in metabolic cages 3 days before start of the experiment for acclimatization. Water ad libitum and feed (Ferkelkorn, Garant Tiernahrung, Pöchlarn, Austria) were available before and during the whole experiment.
as §1
On body weight calculated amounts of cereulide, dissolved in ethanol, were mixed with milk (UHT milk; 3.5% fat), and fed to four piglets. Control piglets were fed with milk supplemented with similar ethanol concentrations as the experimental piglets. The experiment started after the uptake of the whole milk cereulide mixture. The milk was checked for bacterial contamination prior to the experiment.
as §2

[3] = oral doses 10 to 150 μg kg^-1, summary in discussion

CC(C)C[C@H]1OC(=O)[C@H](C(C)C)NC(=O)[C@H](C(C)C)OC(=O)[C@@H](C)NC(=O)[C@@H](CC(C)C)OC(=O)[C@H](C(C)C)NC(=O)[C@H](C(C)C)OC(=O)[C@@H](C)NC(=O)[C@@H](CC(C)C)OC(=O)[C@H](C(C)C)NC(=O)[C@H](C(C)C)OC(=O)[C@@H](C)NC1=O [cereulide]
Influence on blood cell composition and biochemical markers in blood ([1]; acute trials, samples before and after 8 (only 150 μg kg^-1), 24 and 48 h): no significant influence | Creatine kinase (CK) ([1]; daily oral dose 10 μg kg^-1, after 3 days, all treated pigs): increase | AST levels ([1]; daily oral dose 10 μg kg^-1, two out of four treated pigs after 3 and 7 days): elevated | Creatine kinase (CK) levels ([1]; single oral dose 30 μg kg^-1): increased | Creatine kinase (CK) levels ([1]; single oral dose 150 μg kg^-1): increased | Leukocytes ([1]; single oral dose 150 μg kg^-1, all animals): increased levels | Aspartate aminotransferase (AST) ([1]; single oral dose 150 μg kg^-1, three out of four pigs): transient increase | Pulse and respiration rates, inner body temperature ([2]; all animals, except during periods of seizures and convulsions): normal pulse and respiration rates as well as inner body temperature | Onset of seizures ([2]; daily oral dose 10 μg kg^-1 for 7 days, all four pigs to varying extents): 2 to 4 h | Onset of transient depressiveness ([2]; daily oral dose 10 μg kg^-1 for 7 days, all piglets): 2 to 6 h | Emesis in the pigs ([2]; oral doses 10 to 150 μg kg^-1): only rarely observed | Onset of observed symptoms in the piglets [2, 3]: 1.5 to 3 h | Time after which symptoms ceased [2, 3]: 7 to 9 h | Duration of transient depressive behavior ([2]; single oral dose 10 μg kg^-1, all treated piglets): 4.5 to 6 h | Time of vomiting after toxin intake ([2]; single oral dose 10 μg kg^-1, one animal): 11 h | Time after which all symptoms disappeared ([2]; single oral dose 30 μg kg^-1): 7 to 9 h | Onset of shivering ([2]; single oral dose 30 μg kg^-1, 2/4 piglets, seizures an additional hour later): 1 h | Onset of seizures after cereulide intake ([2]; single oral dose 30 μg kg^-1, remaining two piglets): 4 to 6 h | Onset of lethargic behavior ([2]; single oral dose 150 μg kg^-1, all treated piglets): 1.5 to 2 h | Time to gradual recovery ([2]; single oral dose 150 μg kg^-1, three of the four piglets): 6 to 7 h
